{"source": "PubChem BioAssay AID1259411", "about": "(Chemical Carcinogenesis Research Information System (CCRIS), 2018)", "test_system": "rodent carcinogenicity bioassays, tumor incidence", "test": "CCRIS carcinogenicity studies", "conditions": "Dose: 0, Dose: 0", "method_in_brief": "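Archive of carcinogenicity, mutagenicity, tumor promotion and tumor inhibition results drawn from journals, NCI reports and other sources, expert-reviewed; covers 1985-2011 and is no longer updated.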", "note": "Active and inactive are the calls of the source. How the calls were made is not given here.", "data": [{"smiles": "CC1=C(C(=O)OCCN(Cc2ccccc2)c2ccccc2)C(c2cccc([N+](=O)[O-])c2)C(P2(=O)OCC(C)(C)CO2)=C(C)N1", "note": "(stereo not given)", "values": [{"measurement": "carcinogen call", "setting": "Species: MOUSE, Strain/Sex: B6C3F1/FEMALE, Route: ORAL, 500, 1600, 5000 PPM IN FEED FOR 104 WK (STUDY DURATION: 104 WK), 500, 1600, 5000 PPM IN FEED FOR 104 WK (STUDY DURATION: 104 WK)", "value": "inactive; negative"}, {"measurement": "carcinogen call", "setting": "Species: MOUSE, Strain/Sex: B6C3F1/MALE, Route: ORAL, 500, 1600, 5000 PPM IN FEED FOR 104 WK (STUDY DURATION: 104 WK), 500, 1600, 5000 PPM IN FEED FOR 104 WK (STUDY DURATION: 104 WK)", "value": "inactive; negative"}, {"measurement": "carcinogen call", "setting": "Species: RAT, Strain/Sex: F344/FEMALE, Route: ORAL, 400, 1200, 3600 PPM IN FEED FOR 104 WK (STUDY DURATION: 104 WK), 400, 1200, 3600 PPM IN FEED FOR 104 WK (STUDY DURATION: 104 WK)", "value": "inactive; negative"}, {"measurement": "carcinogen call", "setting": "Species: RAT, Strain/Sex: F344/MALE, Route: ORAL, 400, 1200, 3600 PPM IN FEED FOR 104 WK (STUDY DURATION: 104 WK), 400, 1200, 3600 PPM IN FEED FOR 104 WK (STUDY DURATION: 104 WK)", "value": "inactive; negative"}]}, {"smiles": "CC[N+]([O-])=NC", "values": [{"measurement": "carcinogen call", "setting": "Species: RAT, Strain/Sex: F344/MALE, Route: ORAL, 12, 48 MG/ML IN A NEUTRAL DEIONIZED DRINKING WATER SOLUTION 5 D/WK FOR 30 WK (TOTAL DOSE 36; 115 MG) (STUDY DURATION:, 12, 48 MG/ML IN A NEUTRAL DEIONIZED DRINKING WATER SOLUTION 5 D/WK FOR 30 WK (TOTAL DOSE 36; 115 MG) (STUDY DURATION:, Tumor Site: Type of Lesion: LIVER: CARCINOMA, HEMANGIOSARCOMA, COLON: ADENOCARCINOMA, ADENOMA, ILEUM: TUMOR, Tumor Site: Type of Lesion: LIVER: CARCINOMA, HEMANGIOSARCOMA, COLON: ADENOCARCINOMA, ADENOMA, ILEUM: TUMOR", "value": "active; positive"}]}, {"smiles": "CCN(CC)C(=O)/C(Cl)=C(\\C)OP(=O)(OC)OC", "values": [{"measurement": "carcinogen call", "setting": "Species: MOUSE, Strain/Sex: B6C3F1/FEMALE, Route: ORAL, 80, 160 PPM IN DIET, 80, 160 PPM IN DIET", "value": "inactive; negative"}, {"measurement": "carcinogen call", "setting": "Species: MOUSE, Strain/Sex: B6C3F1/MALE, Route: ORAL, 80, 160 PPM IN DIET, 80, 160 PPM IN DIET", "value": "inactive; negative"}, {"measurement": "carcinogen call", "setting": "Species: RAT, Strain/Sex: OSBORNE-MENDEL/FEMALE, Route: ORAL, 80, 160 PPM IN DIET FOR 80 WK (STUDY DURATION: 111 WK), 80, 160 PPM IN DIET FOR 80 WK (STUDY DURATION: 111 WK), Tumor Site: Type of Lesion: THYROID GLAND: C-CELL ADENOMA OR CARCINOMA", "value": "equivocal"}, {"measurement": "carcinogen call", "setting": "Species: RAT, Strain/Sex: OSBORNE-MENDEL/MALE, Route: ORAL, 80, 160 PPM IN DIET FOR 80 WK (STUDY DURATION: 111 WK), 80, 160 PPM IN DIET FOR 80 WK (STUDY DURATION: 111 WK), Tumor Site: Type of Lesion: SPLEEN: HEMANGIOMA OR HEMANGIOSARCOMA", "value": "equivocal"}]}, {"smiles": "C=Cc1ccc(C)cc1", "values": [{"measurement": "carcinogen call", "setting": "Species: MOUSE, Strain/Sex: SWISS/FEMALE, Route: INTRAGASTRIC, 10, 50, 250 MG/KG IN OLIVE OIL 1/D, 5 D/WK FOR 78 WK (STUDY DURATION: 83 WK), 10, 50, 250 MG/KG IN OLIVE OIL 1/D, 5 D/WK FOR 78 WK (STUDY DURATION: 83 WK)", "value": "inactive; negative"}, {"measurement": "carcinogen call", "setting": "Species: MOUSE, Strain/Sex: SWISS/MALE, Route: INTRAGASTRIC, 10, 50, 250 MG/KG IN OLIVE OIL 1/D, 5 D/WK FOR 78 WK (STUDY DURATION: 83 WK), 10, 50, 250 MG/KG IN OLIVE OIL 1/D, 5 D/WK FOR 78 WK (STUDY DURATION: 83 WK)", "value": "inactive; negative"}, {"measurement": "carcinogen call", "setting": "Species: RAT, Strain/Sex: SPRAGUE-DAWLEY/FEMALE, Route: INTRAGASTRIC, 10, 50, 250, 500 MG/KG IN OLIVE OIL 1/D, 5 D/WK FOR 104 WK (STUDY DURATION: 123 WK), 10, 50, 250, 500 MG/KG IN OLIVE OIL 1/D, 5 D/WK FOR 104 WK (STUDY DURATION: 123 WK)", "value": "inactive; negative"}, {"measurement": "carcinogen call", "setting": "Species: RAT, Strain/Sex: SPRAGUE-DAWLEY/MALE, Route: INTRAGASTRIC, 10, 50, 250, 500 MG/KG IN OLIVE OIL 1/D, 5 D/WK FOR 104 WK (STUDY DURATION: 123 WK), 10, 50, 250, 500 MG/KG IN OLIVE OIL 1/D, 5 D/WK FOR 104 WK (STUDY DURATION: 123 WK)", "value": "inactive; negative"}]}, {"smiles": "C[C@@H]1Cc2c(Cl)cc(C(=O)NC(Cc3ccccc3)C(=O)O)c(O)c2C(=O)O1", "note": "(stereo not given in full)", "values": [{"measurement": "carcinogen call", "setting": "Species: MOUSE, Strain/Sex: ALBINO/MALE,FEMALE, Route: GAVAGE, 0.25 ML OF 50 PPM SOLUTION 2/WK FOR 20 WK (STUDY DURATION: 20 WK), Tumor Site: Type of Lesion: KIDNEY: CARCINOMA", "value": "active; positive"}, {"measurement": "carcinogen call", "setting": "Species: MOUSE, Strain/Sex: CD-1/FEMALE, Route: ORAL, 0.031, 0.125, 0.5% IN DIET FOR 78 WK (STUDY DURATION: 78 WK), 0.031, 0.125, 0.5% IN DIET FOR 78 WK (STUDY DURATION: 78 WK)", "value": "inactive; negative"}, {"measurement": "carcinogen call", "setting": "Species: MOUSE, Strain/Sex: CD-1/MALE, Route: ORAL, 0.031, 0.125, 0.5% IN DIET FOR 78 WK (STUDY DURATION: 78 WK), 0.031, 0.125, 0.5% IN DIET FOR 78 WK (STUDY DURATION: 78 WK)", "value": "inactive; negative"}, {"measurement": "carcinogen call", "setting": "Species: MOUSE, Strain/Sex: DDD/MALE, Route: ORAL, 25 PPM IN DIET FOR 70 WK (STUDY DURATION: 70 WK), Tumor Site: Type of Lesion: KIDNEY: RENAL CELL TUMOR, LIVER: HEPATOMA", "value": "active; positive"}, {"measurement": "carcinogen call", "setting": "Species: MOUSE, Strain/Sex: DDY/MALE, Route: ORAL, 7.05, 17.24, 26.27, 33.16, 35.86, 42.67 MG/MOUSE (TOTAL DOSE) ADMINISTERED AT A DOSE OF 50 PPM IN DIET FOR 0, 5, 10,, 7.05, 17.24, 26.27, 33.16, 35.86, 42.67 MG/MOUSE (TOTAL DOSE) ADMINISTERED AT A DOSE OF 50 PPM IN DIET FOR 0, 5, 10,, Tumor Site: Type of Lesion: LIVER: HEPATOMA, KIDNEY: RENAL CELL TUMOR", "value": "active; positive"}, {"measurement": "carcinogen call", "setting": "Species: MOUSE, Strain/Sex: SWISS/MALE,FEMALE, Route: GAVAGE, 0.25 ML OF A 50 PPM SOLUTION 2/WK FOR 20 WK (STUDY DURATION: 20 WK), Tumor Site: Type of Lesion: KIDNEY: CARCINOMA", "value": "active; positive"}, {"measurement": "carcinogen call", "setting": "Species: RAT, Strain/Sex: DA/FEMALE, Route: GAVAGE, 0.4 MG/KG BW IN SODIUM BICARBONATE 3/WK FOR DURATION OF STUDY (STUDY DURATION: LIFESPAN)", "value": "inactive; negative"}, {"measurement": "carcinogen call", "setting": "Species: RAT, Strain/Sex: DA/MALE, Route: GAVAGE, 0.4 MG/KG BW IN SODIUM BICARBONATE 3/WK FOR DURATION OF STUDY (STUDY DURATION: LIFESPAN), Tumor Site: Type of Lesion: KIDNEY: ADENOCARCINOMA, ADENOMA", "value": "active; positive"}, {"measurement": "carcinogen call", "setting": "Species: RAT, Strain/Sex: F344/FEMALE, Route: GAVAGE, 21, 70, 210 UG/KG IN CORN OIL 5 D/WK FOR 103 WK (STUDY DURATION: 105 WK), 21, 70, 210 UG/KG IN CORN OIL 5 D/WK FOR 103 WK (STUDY DURATION: 105 WK), Tumor Site: Type of Lesion: KIDNEY TUBULE: ADENOMA, CARCINOMA, MAMMARY GLAND: FIBROADENOMA, ADENOMA OR FIBROADENOMA OR ADENOCARCINOMA", "value": "active; positive"}, {"measurement": "carcinogen call", "setting": "Species: RAT, Strain/Sex: F344/MALE, Route: GAVAGE, 21, 70, 210 UG/KG IN CORN OIL 5 D/WK FOR 103 WK (STUDY DURATION: 106 WK), 21, 70, 210 UG/KG IN CORN OIL 5 D/WK FOR 103 WK (STUDY DURATION: 106 WK), Tumor Site: Type of Lesion: KIDNEY TUBULE: ADENOMA, CARCINOMA", "value": "active; positive"}, {"measurement": "carcinogen call", "setting": "Species: RAT, Strain/Sex: LEWIS/FEMALE, Route: GAVAGE, 0.4 MG/KG BW IN SODIUM BICARBONATE 3/WK FOR DURATION OF STUDY (STUDY DURATION: LIFESPAN), Tumor Site: Type of Lesion: KIDNEY: ADENOCARCINOMA", "value": "active; positive"}, {"measurement": "carcinogen call", "setting": "Species: RAT, Strain/Sex: LEWIS/MALE, Route: GAVAGE, 0.4 MG/KG BW IN SODIUM BICARBONATE 3/WK FOR DURATION OF STUDY (STUDY DURATION: LIFESPAN), Tumor Site: Type of Lesion: KIDNEY: ADENOCARCINOMA", "value": "active; positive"}]}]}
